Reference: the kinase profiling compilation of Christmann-Franck et al. (2016)

Columns and labels:
Experiment in all cases: radiometric filter-binding kinase assay
CDK2 CCNA2 (human) = CDK2 CCNA2 (human) (UniProt P20248+P24941)
STK3 (human) = STK3 (human) (UniProt Q13188)
MARK4 (human) = MARK4 (human) (UniProt Q96L34)
MAP3K5 (human) = MAP3K5 (human) (UniProt Q99683)
PIM1 (human) = PIM1 (human) (UniProt P11309)
CHEK1 (human) = CHEK1 (human) (UniProt O14757)
MKNK2 (human) = MKNK2 (human) (UniProt Q9HBH9)
TTK (human) = TTK (human) (UniProt P33981)
PKN2 (human) = PKN2 (human) (UniProt Q16513)
DAPK1 (human) = DAPK1 (human) (UniProt P53355)
YES1 (human) = YES1 (human) (UniProt P07947); conditions: compound 5.0 µM
RPS6KA5 KD1 KD2 (human) = RPS6KA5 KD1 KD2 (human) (UniProt O75582)
MAPK9 (human) = MAPK9 (human) (UniProt P45984)
EPHB1 (human) = EPHB1 (human) (UniProt P54762)
MAPKAPK2 (human) = MAPKAPK2 (human) (UniProt P49137)
INSRR (human) = INSRR (human) (UniProt P14616)
MYLK (human) = MYLK (human) (UniProt Q15746)
EPHB4 (human) = EPHB4 (human) (UniProt P54760); conditions: compound 1.0 µM
BTK (human) = BTK (human) (UniProt Q06187)
SRPK1 (human) = SRPK1 (human) (UniProt Q96SB4)
MAP2K1 (human) = MAP2K1 (human) (UniProt Q02750)
EEF2K (human) = EEF2K (human) (UniProt O00418)
MAP2K2 (human) = MAP2K2 (human) (UniProt P36507); conditions: compound 5.0 µM
PIM3 (human) = PIM3 (human) (UniProt Q86V86)
MAP3K9 (human) = MAP3K9 (human) (UniProt P80192)
EPHA4 (human) = EPHA4 (human) (UniProt P54764)
NEK6 (human) = NEK6 (human) (UniProt Q9HC98)
PAK6 (human) = PAK6 (human) (UniProt Q9NQU5)
TBK1 (human) = TBK1 (human) (UniProt Q9UHD2); conditions: compound 1.0 µM
MARK3 (human) = MARK3 (human) (UniProt P27448)
[1] = test system: PAK2 (human), Q13177 [T402E]
[2] = test system: RPS6KB1 (human), P23443 [T412E]
PIM2 (human) = PIM2 (human) (UniProt Q9P1W9)
GCK (human) = GCK (human) (UniProt Q12851)
CSNK2A1 (human) = CSNK2A1 (human) (UniProt P68400)

MARK3 (human), sequence (P27448 whole entry, looked up): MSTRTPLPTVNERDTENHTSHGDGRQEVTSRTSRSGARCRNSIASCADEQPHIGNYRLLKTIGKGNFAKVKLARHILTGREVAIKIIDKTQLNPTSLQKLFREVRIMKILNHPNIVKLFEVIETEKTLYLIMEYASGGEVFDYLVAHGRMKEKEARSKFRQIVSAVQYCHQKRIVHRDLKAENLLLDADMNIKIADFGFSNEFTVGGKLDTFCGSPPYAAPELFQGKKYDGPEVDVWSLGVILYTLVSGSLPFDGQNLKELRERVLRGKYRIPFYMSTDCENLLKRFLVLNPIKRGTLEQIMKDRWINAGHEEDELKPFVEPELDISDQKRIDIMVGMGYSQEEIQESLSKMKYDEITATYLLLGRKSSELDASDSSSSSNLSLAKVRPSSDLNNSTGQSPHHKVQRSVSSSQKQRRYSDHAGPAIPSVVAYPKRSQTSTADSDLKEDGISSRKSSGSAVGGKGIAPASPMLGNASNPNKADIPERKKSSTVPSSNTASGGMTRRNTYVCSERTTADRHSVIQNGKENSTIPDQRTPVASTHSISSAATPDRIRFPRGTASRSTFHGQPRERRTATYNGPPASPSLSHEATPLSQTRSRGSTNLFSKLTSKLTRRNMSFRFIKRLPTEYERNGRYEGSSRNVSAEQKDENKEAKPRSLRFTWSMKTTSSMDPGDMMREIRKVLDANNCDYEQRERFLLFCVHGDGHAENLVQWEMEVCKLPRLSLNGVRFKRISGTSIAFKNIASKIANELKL
TTK (human), sequence (P33981 whole entry, looked up): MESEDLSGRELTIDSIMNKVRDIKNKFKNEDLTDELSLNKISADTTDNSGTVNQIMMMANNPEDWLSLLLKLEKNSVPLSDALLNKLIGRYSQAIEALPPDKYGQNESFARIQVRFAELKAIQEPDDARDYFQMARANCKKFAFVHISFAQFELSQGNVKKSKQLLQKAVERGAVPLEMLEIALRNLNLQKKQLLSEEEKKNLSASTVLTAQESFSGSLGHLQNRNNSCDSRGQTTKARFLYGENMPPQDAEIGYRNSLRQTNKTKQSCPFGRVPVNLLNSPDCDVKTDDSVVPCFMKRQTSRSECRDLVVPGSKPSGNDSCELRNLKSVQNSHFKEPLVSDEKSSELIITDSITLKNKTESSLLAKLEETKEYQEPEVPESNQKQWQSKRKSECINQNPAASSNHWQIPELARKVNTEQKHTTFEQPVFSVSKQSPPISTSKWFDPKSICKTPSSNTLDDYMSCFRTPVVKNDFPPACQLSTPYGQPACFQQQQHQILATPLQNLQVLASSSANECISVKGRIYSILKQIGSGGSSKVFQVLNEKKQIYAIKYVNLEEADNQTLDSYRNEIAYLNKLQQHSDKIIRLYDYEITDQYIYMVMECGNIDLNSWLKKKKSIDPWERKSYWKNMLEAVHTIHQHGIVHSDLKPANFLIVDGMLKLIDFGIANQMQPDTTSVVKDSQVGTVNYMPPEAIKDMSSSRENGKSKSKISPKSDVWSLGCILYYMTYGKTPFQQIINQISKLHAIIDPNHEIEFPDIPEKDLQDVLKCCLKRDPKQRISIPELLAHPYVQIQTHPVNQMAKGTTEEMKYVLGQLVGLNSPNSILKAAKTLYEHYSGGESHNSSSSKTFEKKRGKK
EEF2K (human), sequence (O00418 whole entry, looked up): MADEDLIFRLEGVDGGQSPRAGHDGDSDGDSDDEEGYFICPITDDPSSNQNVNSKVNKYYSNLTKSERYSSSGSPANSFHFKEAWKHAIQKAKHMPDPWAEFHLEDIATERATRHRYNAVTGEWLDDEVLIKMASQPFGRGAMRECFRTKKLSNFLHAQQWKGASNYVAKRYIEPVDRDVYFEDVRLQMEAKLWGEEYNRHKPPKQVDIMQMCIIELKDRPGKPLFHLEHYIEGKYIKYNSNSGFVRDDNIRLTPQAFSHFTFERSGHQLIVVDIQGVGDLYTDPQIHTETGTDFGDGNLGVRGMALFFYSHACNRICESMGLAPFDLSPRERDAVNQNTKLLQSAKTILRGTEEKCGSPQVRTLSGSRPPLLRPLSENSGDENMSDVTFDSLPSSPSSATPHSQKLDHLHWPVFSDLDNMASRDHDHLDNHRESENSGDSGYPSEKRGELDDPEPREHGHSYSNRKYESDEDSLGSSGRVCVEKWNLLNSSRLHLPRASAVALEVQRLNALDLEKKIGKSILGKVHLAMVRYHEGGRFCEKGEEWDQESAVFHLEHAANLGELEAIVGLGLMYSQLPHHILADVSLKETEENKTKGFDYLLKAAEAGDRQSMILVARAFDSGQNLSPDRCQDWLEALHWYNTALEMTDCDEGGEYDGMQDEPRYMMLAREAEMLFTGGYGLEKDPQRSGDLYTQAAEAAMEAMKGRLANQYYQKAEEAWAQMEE
BTK (human), sequence (Q06187 whole entry, looked up): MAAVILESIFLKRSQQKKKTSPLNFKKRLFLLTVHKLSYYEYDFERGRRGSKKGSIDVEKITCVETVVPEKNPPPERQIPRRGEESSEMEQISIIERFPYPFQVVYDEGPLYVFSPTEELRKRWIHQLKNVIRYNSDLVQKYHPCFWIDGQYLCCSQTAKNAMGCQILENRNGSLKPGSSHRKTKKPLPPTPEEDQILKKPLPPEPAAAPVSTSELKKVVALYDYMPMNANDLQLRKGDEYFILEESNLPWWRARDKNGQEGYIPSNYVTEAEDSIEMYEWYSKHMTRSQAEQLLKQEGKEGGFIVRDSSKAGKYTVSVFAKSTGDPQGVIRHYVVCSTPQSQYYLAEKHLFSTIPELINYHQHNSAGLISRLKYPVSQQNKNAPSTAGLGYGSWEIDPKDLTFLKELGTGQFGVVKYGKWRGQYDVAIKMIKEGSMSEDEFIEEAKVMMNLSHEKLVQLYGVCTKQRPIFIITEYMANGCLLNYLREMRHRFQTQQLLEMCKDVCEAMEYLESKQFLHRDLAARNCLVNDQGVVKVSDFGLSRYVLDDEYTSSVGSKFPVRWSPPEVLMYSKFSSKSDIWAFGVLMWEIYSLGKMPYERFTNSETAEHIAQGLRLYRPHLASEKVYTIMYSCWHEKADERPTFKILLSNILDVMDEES
MAP3K9 (human), sequence (P80192 whole entry, looked up): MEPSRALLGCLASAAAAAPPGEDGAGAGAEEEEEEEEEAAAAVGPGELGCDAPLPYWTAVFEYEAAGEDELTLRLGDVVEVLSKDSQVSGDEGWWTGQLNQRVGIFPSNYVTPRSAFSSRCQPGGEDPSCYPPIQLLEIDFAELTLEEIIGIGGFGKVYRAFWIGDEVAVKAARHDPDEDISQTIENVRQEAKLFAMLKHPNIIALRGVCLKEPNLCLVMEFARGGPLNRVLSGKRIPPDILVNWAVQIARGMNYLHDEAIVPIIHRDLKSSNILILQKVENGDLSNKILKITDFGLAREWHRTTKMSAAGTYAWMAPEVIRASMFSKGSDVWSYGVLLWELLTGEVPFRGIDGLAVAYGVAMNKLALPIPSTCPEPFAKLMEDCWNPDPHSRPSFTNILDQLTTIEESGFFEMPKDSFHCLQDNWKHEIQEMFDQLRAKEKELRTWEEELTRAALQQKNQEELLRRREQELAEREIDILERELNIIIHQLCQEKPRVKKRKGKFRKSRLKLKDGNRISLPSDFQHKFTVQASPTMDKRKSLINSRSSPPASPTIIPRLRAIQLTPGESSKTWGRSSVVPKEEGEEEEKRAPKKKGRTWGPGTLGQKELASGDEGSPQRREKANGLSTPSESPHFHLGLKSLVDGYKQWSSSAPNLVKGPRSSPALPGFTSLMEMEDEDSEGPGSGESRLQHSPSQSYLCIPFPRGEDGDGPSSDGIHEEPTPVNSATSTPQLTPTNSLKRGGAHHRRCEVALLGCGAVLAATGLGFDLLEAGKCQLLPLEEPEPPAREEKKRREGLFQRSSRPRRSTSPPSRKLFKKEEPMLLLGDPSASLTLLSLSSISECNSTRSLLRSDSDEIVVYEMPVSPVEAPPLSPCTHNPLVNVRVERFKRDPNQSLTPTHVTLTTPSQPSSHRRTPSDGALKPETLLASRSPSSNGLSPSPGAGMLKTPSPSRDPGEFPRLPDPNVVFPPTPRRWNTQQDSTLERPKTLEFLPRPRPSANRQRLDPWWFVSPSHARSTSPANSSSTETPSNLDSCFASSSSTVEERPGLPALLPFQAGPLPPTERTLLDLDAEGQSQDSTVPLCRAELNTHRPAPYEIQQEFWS
MAP2K1 (human), sequence (Q02750 whole entry, looked up): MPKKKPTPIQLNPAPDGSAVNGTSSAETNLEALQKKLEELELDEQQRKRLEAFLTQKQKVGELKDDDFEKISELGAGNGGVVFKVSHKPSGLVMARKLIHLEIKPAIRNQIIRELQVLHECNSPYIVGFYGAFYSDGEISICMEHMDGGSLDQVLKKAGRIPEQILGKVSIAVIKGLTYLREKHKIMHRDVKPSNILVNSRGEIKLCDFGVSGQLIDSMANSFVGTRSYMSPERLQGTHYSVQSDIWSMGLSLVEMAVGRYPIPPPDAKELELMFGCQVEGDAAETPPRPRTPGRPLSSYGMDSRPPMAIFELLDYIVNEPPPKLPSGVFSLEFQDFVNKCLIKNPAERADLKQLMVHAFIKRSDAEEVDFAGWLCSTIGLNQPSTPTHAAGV

C=C1C(=O)OC2C1CC/C(C)=C/CCC1(C)OC21 (stereo unspecified)
residual activity (CDK2 CCNA2 (human); compound 1.0 µM): 93% | residual activity (CDK2 CCNA2 (human); compound 5.0 µM): 116% | residual activity (STK3 (human); compound 1.0 µM): 118% | residual activity (STK3 (human); compound 5.0 µM): 125% | residual activity (MARK4 (human); compound 1.0 µM): 111% | residual activity (MARK4 (human); compound 5.0 µM): 93% | residual activity (MAP3K5 (human); compound 1.0 µM): 98% | residual activity (MAP3K5 (human); compound 5.0 µM): 125% | residual activity (PIM1 (human); compound 1.0 µM): 97% | residual activity (PIM1 (human); compound 5.0 µM): 108% | residual activity (CHEK1 (human); compound 1.0 µM): 123% | residual activity (CHEK1 (human); compound 5.0 µM): 98% | residual activity (MKNK2 (human); compound 1.0 µM): 113% | residual activity (MKNK2 (human); compound 5.0 µM): 117% | residual activity (TTK (human); compound 1.0 µM): 109% | residual activity (TTK (human); compound 5.0 µM): 106% | residual activity (PKN2 (human); compound 1.0 µM): 106% | residual activity (PKN2 (human); compound 5.0 µM): 102% | residual activity (DAPK1 (human); compound 1.0 µM): 102% | residual activity (DAPK1 (human); compound 5.0 µM): 107% | residual activity (YES1 (human)): 109% | residual activity (RPS6KA5 KD1 KD2 (human); compound 1.0 µM): 110% | residual activity (RPS6KA5 KD1 KD2 (human); compound 5.0 µM): 106% | residual activity (MAPK9 (human); compound 1.0 µM): 114% | residual activity (MAPK9 (human); compound 5.0 µM): 110% | residual activity (EPHB1 (human); compound 1.0 µM): 103% | residual activity (EPHB1 (human); compound 5.0 µM): 115% | residual activity (MAPKAPK2 (human); compound 1.0 µM): 72% | residual activity (MAPKAPK2 (human); compound 5.0 µM): 64% | residual activity (INSRR (human); compound 1.0 µM): 107% | residual activity (INSRR (human); compound 5.0 µM): 95% | residual activity (MYLK (human); compound 1.0 µM): 123% | residual activity (MYLK (human); compound 5.0 µM): 113% | residual activity (EPHB4 (human)): 124% | residual activity (BTK (human); compound 1.0 µM): 117% | residual activity (BTK (human); compound 5.0 µM): 85% | residual activity (SRPK1 (human); compound 1.0 µM): 111% | residual activity (SRPK1 (human); compound 5.0 µM): 106% | residual activity (MAP2K1 (human); compound 1.0 µM): 96% | residual activity (MAP2K1 (human); compound 5.0 µM): 93% | residual activity (EEF2K (human); compound 1.0 µM): 107% | residual activity (EEF2K (human); compound 5.0 µM): 91% | residual activity (MAP2K2 (human)): 109% | residual activity (PIM3 (human); compound 1.0 µM): 119% | residual activity (PIM3 (human); compound 5.0 µM): 121% | residual activity (MAP3K9 (human); compound 1.0 µM): 117% | residual activity (MAP3K9 (human); compound 5.0 µM): 95% | residual activity (EPHA4 (human); compound 1.0 µM): 110% | residual activity (EPHA4 (human); compound 5.0 µM): 87% | residual activity (NEK6 (human); compound 1.0 µM): 113% | residual activity (NEK6 (human); compound 5.0 µM): 82% | residual activity (PAK6 (human); compound 1.0 µM): 119% | residual activity (PAK6 (human); compound 5.0 µM): 115% | residual activity (TBK1 (human)): 104% | residual activity (MARK3 (human); compound 1.0 µM): 123% | residual activity (MARK3 (human); compound 5.0 µM): 98% | residual activity ([1]; compound 1.0 µM): 102% | residual activity ([1]; compound 5.0 µM): 103% | residual activity ([2]; compound 1.0 µM): 103% | residual activity ([2]; compound 5.0 µM): 106% | residual activity (PIM2 (human); compound 1.0 µM): 110% | residual activity (PIM2 (human); compound 5.0 µM): 102% | residual activity (GCK (human); compound 1.0 µM): 116% | residual activity (GCK (human); compound 5.0 µM): 98% | residual activity (CSNK2A1 (human); compound 1.0 µM): 117% | residual activity (CSNK2A1 (human); compound 5.0 µM): 106%
